From patent publication US20070049564A1 (Wyeth, priority 2005, published 2007)
≈ marks a conversion by molar mass, not a printed value.

How the values were obtained:
Test in all cases: MIC, broth microdilution
S. epidermidis GC 4935 = settings: Staphylococcus epidermidis, GC4935, S. epidermidis GC 4935
E. coli GC 1073 = settings: Escherichia coli, GC1073, E. coli GC 1073
E. faecalis GC 2265 = settings: Enterococcus faecalis, GC2265, E. faecalis GC 2265
Procedure: (§1) Antimicrobial susceptibility testing. The in vitro activities of the antibiotics are determined by the broth microdilution method as recommended by the National Committee for Clinical Laboratory Standards (NCCLS) (1). Mueller-Hinton II broth (MHBII)(BBL Cockeysville, Md.) is the medium employed in the testing procedures. Microtiter plates containing serial dilutions of each antimicrobial agent are inoculated with each organism to yield the appropriate density (10^5 CFU/ml) in a 100 μl final volume. The plates are incubated for 18-22 hours at 35° C. in ambient air.
(§2) Representative compounds were first incubated in mouse serum for an hour prior to the in vitro testing against a panel of selected gram-positive and gram-negative bacteria strains. All compounds were also pre-incubated in water for an hour prior to testing as control.

P. aeruginosa GC 2214 = settings: Pseudomonas aeruginosa, GC2214, P. aeruginosa GC 2214
S. aureus GC 6335 = settings: Staphylococcus aureus, GC6335, S. aureus GC 6335
E. coli GC 4560 = settings: Escherichia coli, GC4560, E. coli GC 4560
E. coli GC 2233 = settings: Escherichia coli, GC2233, E. coli GC 2233
Procedure: as §1, §2

E. faecalis GC 2267 = settings: Enterococcus faecalis, GC2267, E. faecalis GC 2267
S. aureus GC 6469 = settings: Staphylococcus aureus, GC6469, S. aureus GC 6469
E. coli GC 2271 = settings: Escherichia coli, GC2271, E. coli GC 2271
E. coli GC 2203 = settings: Escherichia coli, GC2203, E. coli GC 2203
c. albicans GC 3066 = test system: c. albicans GC 3066
E. coli GC 2272 = settings: Escherichia coli, GC2272, E. coli GC 2272
S. aureus GC 6467 = settings: Staphylococcus aureus, GC6467, S. aureus GC 6467
S. aureus GC 1079 = settings: Staphylococcus aureus, GC1079, S. aureus GC 1079
S. aureus GC 1131 = settings: Staphylococcus aureus, GC1131, S. aureus GC 1131
E. coli GC 2270 = settings: Escherichia coli, GC2270, E. coli GC 2270
E. coli GC 6465 = settings: Escherichia coli, GC6465, E. coli GC 6465
E. faecium GC 2243 = settings: Enterococcus faecium, GC2243, E. faecium GC 2243
E. coli GC 3226 = settings: Escherichia coli, GC3226, E. coli GC 3226

Question: For CCCCN(CC(=O)Nc1cc(N(C)C)c2c(c1O)C(=O)C1=C(O)[C@]3(O)C(=O)C(C(N)=O)=C(O)[C@@H](N(C)C)[C@@H]3C[C@@H]1C2)C(=O)OCOC(=O)Cc1ccccc1 [Example 12, ({[(2-{[(5aR,6aS,7S,10aS)-9-(aminocarbonyl)-4,7-bis(dimethylamino)-1,8,10a,11-tetrahydroxy-10,12-dioxo-5,5a,6,6a,7,10,10a,12-octahydrotetracen-2-yl]amino}-2-oxoethyl)(butyl)amino]carbonyl}oxy)methyl phenylacetate], which MIC (S. epidermidis GC 4935; Mouse Serum pre-incubation) is on record?
Answer: The MIC was 4 µg/mL (≈ 5.14 µM).

Question: And the MIC (S. epidermidis GC 4935; Water pre-incubation)?
Answer: Its MIC is 8 µg/mL (≈ 10.3 µM).

Question: What about the MIC (E. coli GC 1073; Mouse Serum pre-incubation) of the same compound?
Answer: Its MIC is 1 µg/mL (≈ 1.29 µM).

Question: And the MIC (E. coli GC 1073; Water pre-incubation)?
Answer: Its MIC is 64 µg/mL (≈ 82.3 µM).

Question: What about the MIC (E. faecalis GC 2265; Mouse Serum pre-incubation) of the same compound?
Answer: Its MIC is 2 µg/mL (≈ 2.57 µM).

Question: What about the MIC (E. faecalis GC 2265; Water pre-incubation) of the same compound?
Answer: Its MIC is 8 µg/mL (≈ 10.3 µM).

Question: What about the MIC (P. aeruginosa GC 2214; Mouse Serum pre-incubation) of the same compound?
Answer: Its MIC is 32 µg/mL (≈ 41.1 µM).

Question: And the MIC (P. aeruginosa GC 2214; Water pre-incubation)?
Answer: Its MIC is greater than 64 µg/mL.

Question: What about the MIC (S. aureus GC 6335; Mouse Serum pre-incubation) of the same compound?
Answer: The MIC was 1 µg/mL (≈ 1.29 µM).

Question: What about the MIC (S. aureus GC 6335; Water pre-incubation) of the same compound?
Answer: The MIC was 2 µg/mL (≈ 2.57 µM).

Question: And the MIC (E. coli GC 4560; Mouse Serum pre-incubation)?
Answer: Its MIC is 0.25 µg/mL (≈ 0.321 µM).

Question: What about the MIC (E. coli GC 4560; Water pre-incubation) of the same compound?
Answer: The MIC was 1 µg/mL (≈ 1.29 µM).

Question: And the MIC (E. coli GC 2233; Mouse Serum pre-incubation)?
Answer: Its MIC is 1 µg/mL (≈ 1.29 µM).

Question: What about the MIC (E. coli GC 2233; Water pre-incubation) of the same compound?
Answer: Its MIC is 32 µg/mL (≈ 41.1 µM).

Question: And the MIC (E. faecalis GC 2267; Mouse Serum pre-incubation)?
Answer: Its MIC is 2 µg/mL (≈ 2.57 µM).

Question: What about the MIC (E. faecalis GC 2267; Water pre-incubation) of the same compound?
Answer: Its MIC is 8 µg/mL (≈ 10.3 µM).

Question: And the MIC (S. aureus GC 6469; Mouse Serum pre-incubation)?
Answer: The MIC was 4 µg/mL (≈ 5.14 µM).

Question: What about the MIC (S. aureus GC 6469; Water pre-incubation) of the same compound?
Answer: Its MIC is 16 µg/mL (≈ 20.6 µM).

Question: What about the MIC (E. coli GC 2271; Mouse Serum pre-incubation) of the same compound?
Answer: The MIC was 0.5 µg/mL (≈ 0.643 µM).

Question: What about the MIC (E. coli GC 2271; Water pre-incubation) of the same compound?
Answer: Its MIC is 16 µg/mL (≈ 20.6 µM).

Question: What about the MIC (E. coli GC 2203; Mouse Serum pre-incubation) of the same compound?
Answer: Its MIC is 1 µg/mL (≈ 1.29 µM).

Question: What about the MIC (E. coli GC 2203; Water pre-incubation) of the same compound?
Answer: Its MIC is 32 µg/mL (≈ 41.1 µM).

Question: What about the MIC (c. albicans GC 3066; Candida albicans, GC3066) of the same compound?
Answer: The MIC was greater than 64 µg/mL.

Question: And the MIC (c. albicans GC 3066; c. albicans GC 3066, Water pre-incubation)?
Answer: The MIC was greater than 64 UG/ML.

Question: And the MIC (E. coli GC 2272; Mouse Serum pre-incubation)?
Answer: The MIC was 1 µg/mL (≈ 1.29 µM).

Question: What about the MIC (E. coli GC 2272; Water pre-incubation) of the same compound?
Answer: The MIC was 16 µg/mL (≈ 20.6 µM).

Question: What about the MIC (S. aureus GC 6467; Mouse Serum pre-incubation) of the same compound?
Answer: The MIC was 4 µg/mL (≈ 5.14 µM).

Question: What about the MIC (S. aureus GC 6467; Water pre-incubation) of the same compound?
Answer: Its MIC is 16 µg/mL (≈ 20.6 µM).

Question: And the MIC (S. aureus GC 1079; Mouse Serum pre-incubation)?
Answer: The MIC was 2 µg/mL (≈ 2.57 µM).

Question: And the MIC (S. aureus GC 1079; Water pre-incubation)?
Answer: The MIC was 8 µg/mL (≈ 10.3 µM).

Question: And the MIC (S. aureus GC 1131; Mouse Serum pre-incubation)?
Answer: The MIC was 1 µg/mL (≈ 1.29 µM).

Question: And the MIC (S. aureus GC 1131; Water pre-incubation)?
Answer: The MIC was 2 µg/mL (≈ 2.57 µM).

Question: And the MIC (E. coli GC 2270; Mouse Serum pre-incubation)?
Answer: The MIC was 0.5 µg/mL (≈ 0.643 µM).

Question: And the MIC (E. coli GC 2270; Water pre-incubation)?
Answer: Its MIC is 32 µg/mL (≈ 41.1 µM).

Question: What about the MIC (E. coli GC 6465; Mouse Serum pre-incubation) of the same compound?
Answer: Its MIC is 8 µg/mL (≈ 10.3 µM).

Question: And the MIC (E. coli GC 6465; Water pre-incubation)?
Answer: The MIC was greater than 64 µg/mL.

Question: And the MIC (E. faecium GC 2243; Mouse Serum pre-incubation)?
Answer: The MIC was 0.5 µg/mL (≈ 0.643 µM).

Question: And the MIC (E. faecium GC 2243; Water pre-incubation)?
Answer: The MIC was 4 µg/mL (≈ 5.14 µM).

Question: What about the MIC (E. coli GC 3226; Mouse Serum pre-incubation) of the same compound?
Answer: Its MIC is 2 µg/mL (≈ 2.57 µM).

Question: And the MIC (E. coli GC 3226; Water pre-incubation)?
Answer: The MIC was 64 µg/mL (≈ 82.3 µM).
